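Five concentrations, 48 hours, 96-well plates. GI50 marks 50% less growth. TGI: concentration producing complete growth inhibition.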 A value given as a limit tells only on which side of the number the result lay.

One test has as its system K-562 leukemia. The experiment in a line: DTP human tumour cell line panel, 48 h.
`COc1ccc(C(=O)COc2cccc(/C=C3\Oc4ccc5ccccc5c4C3=O)c2)cc1`: the GI50 (in general, the concentration at which growth is held to half of that of the control) is 1.53 µM and the TGI – broadly, the concentration at which net growth stops – is 3.73 µM.
In the same order, the values of `COc1ccc(-c2oc3cc(O)c(OC)c(O)c3c(=O)c2OC)cc1O` are 0.0436 µM and above 100 µM.
`Cc1c(C2=C(Br)C(=O)N(C)C2=O)c(=O)n(C)c(=O)n1C` gave a total growth inhibition concentration (TGI) of 59.7 µM.
The same measure, in the same setting: then `N#CC(=NCCO)C1=C(O)c2ccccc2C1=O`, with above 100 µM.
`NC(CS/C(Cl)=C/Cl)C(=O)O` (centres undefined): the GI50 was 33.4 µM and the TGI is above 100 µM.
Compound `Cc1ccc(C2(O)CC(c3ccc([N+](=O)[O-])o3)=NN2C(=O)COc2ccc(Cl)cc2)cc1` (centres undefined) had a TGI above 100 µM.
`COc1ccc2c(O)cc3c(c2c1)[C@H](CCl)CN3C(=O)c1cc2cc(NC(=O)CCN3CCOCC3)ccc2[se]1`: the GI50 is below 0.001 µM and the TGI was above 10 µM.

For another test, the system named is M14 melanoma. The experiment in a line: DTP human tumour cell line panel, 48 h.
Turning to `Nc1nc(SN=Nc2ccc(S(N)(=O)=O)cc2)c2[nH]cnc2n1`, the concentration for 50% growth inhibition (GI50) is 0.393 µM and the TGI is 9 µM.
For `CN(CCCNC(=O)Cc1ccc2ccc3cccc4ccc1c2c34)CCCNc1cc(-c2ccc3ccccc3c2)nc2ccccc12`, in that order: 1.76 µM and 3.46 µM.
For `COCCOc1cnc2ccn([C@H](C)c3nnc4c(F)cc(-c5cnn(C)c5)cn34)c(=O)c2c1`, in that order: above 100 µM and above 100 µM.
`CC(C)CNC(=O)O` returned a TGI above 100 µM.
For `C[C@]12CC[C@@H]3c4ccc(O)cc4CC[C@H]3[C@@H]1CC[C@@H]2NS(=O)(=O)c1cccc(F)c1`, the GI50 is 3.41 µM and the TGI came to 11.9 µM.
In the same order, the values of `CCC(C)(C)c1ccc(OCCCCCCN2CCNCC2)cc1` are 1.92 µM and 4.17 µM.
On to `Cc1cc(S(=O)(=O)N/N=C(\Sc2cc(Cl)c(C)cc2S(N)(=O)=O)c2ccc(Cl)cc2)c(Cl)cc1Cl`, for which the GI50 is above 100 µM and the total growth inhibition concentration (TGI) was above 100 µM.
As for `C1C[OH+]CCNCC[OH+]CC[OH+]CCN1.[Cl-].[Pt+4]`, the GI50 was above 100 µM and the total growth inhibition concentration (TGI) was above 100 µM.
With `COc1ccc(C(=O)COc2cccc(/C=C3\Oc4ccc5ccccc5c4C3=O)c2)cc1`, the GI50 is 4.8 µM and the TGI amounted to 18.1 µM.
`Cc1c(C2=C(Br)C(=O)N(C)C2=O)c(=O)n(C)c(=O)n1C` gave a total growth inhibition concentration (TGI) above 100 µM.
The same measure, in the same setting: then `N#CC(=NCCO)C1=C(O)c2ccccc2C1=O`, with above 100 µM.
With `NC(CS/C(Cl)=C/Cl)C(=O)O` (centres undefined), the GI50 is 8.19 µM and the TGI was above 68.3 µM.
The compound `Cc1ccc(C2(O)CC(c3ccc([N+](=O)[O-])o3)=NN2C(=O)COc2ccc(Cl)cc2)cc1` (centres undefined) yielded a TGI of 17.1 µM.
Regarding `Cc1cc(N/N=C/c2nc(-c3ccc(Br)cc3)oc2C)c2cc(Br)ccc2n1`, the GI50 is 3.58 µM and the TGI is 13.8 µM.
In the case of `COc1cc2c(cc1O)C1Cc3ccc(OC)c(O)c3C(C2)N1C` (centres undefined), the TGI was above 100 µM.

Another test concerns MOLT-4 leukemia. The test can be described thus: DTP human tumour cell line panel, 48 h.
Consider `Nc1nc(SN=Nc2ccc(S(N)(=O)=O)cc2)c2[nH]cnc2n1`, for which the GI50 was 0.32 µM and the TGI is 6.93 µM.
For `CN(CCCNC(=O)Cc1ccc2ccc3cccc4ccc1c2c34)CCCNc1cc(-c2ccc3ccccc3c2)nc2ccccc12`, in that order: 1.19 µM and 2.57 µM.
In the same order, the values of `COCCOc1cnc2ccn([C@H](C)c3nnc4c(F)cc(-c5cnn(C)c5)cn34)c(=O)c2c1` are above 100 µM and above 100 µM.
As to `CC(C)CNC(=O)O`, the total growth inhibition concentration (TGI) is above 100 µM.
On to `C[C@]12CC[C@@H]3c4ccc(O)cc4CC[C@H]3[C@@H]1CC[C@@H]2NS(=O)(=O)c1cccc(F)c1`, for which the GI50 is 2.5 µM and the concentration for total growth inhibition (TGI) amounted to 9.59 µM.
For `CCC(C)(C)c1ccc(OCCCCCCN2CCNCC2)cc1`, in that order: 2.03 µM and 5.11 µM.
As to `Cc1cc(S(=O)(=O)N/N=C(\Sc2cc(Cl)c(C)cc2S(N)(=O)=O)c2ccc(Cl)cc2)c(Cl)cc1Cl`, the GI50 was 48.3 µM and the TGI was above 100 µM.
For `C1C[OH+]CCNCC[OH+]CC[OH+]CCN1.[Cl-].[Pt+4]`, in that order: above 100 µM and above 100 µM.
In the same order, the values of `COc1ccc(C(=O)COc2cccc(/C=C3\Oc4ccc5ccccc5c4C3=O)c2)cc1` are 2.85 µM and 21.6 µM.
As to `COc1ccc(-c2oc3cc(O)c(OC)c(O)c3c(=O)c2OC)cc1O`, the GI50 was 0.509 µM and the TGI was above 100 µM.
`Cc1c(C2=C(Br)C(=O)N(C)C2=O)c(=O)n(C)c(=O)n1C` gave a TGI of 55.1 µM.
The compound `N#CC(=NCCO)C1=C(O)c2ccccc2C1=O` came in with a TGI above 100 µM.
On to `NC(CS/C(Cl)=C/Cl)C(=O)O` (centres undefined), for which the GI50 was 41.9 µM and the TGI is above 100 µM.
Turning to `Cc1ccc(C2(O)CC(c3ccc([N+](=O)[O-])o3)=NN2C(=O)COc2ccc(Cl)cc2)cc1` (centres undefined), the concentration for total growth inhibition (TGI) is above 100 µM.
Turning to `Cc1cc(N/N=C/c2nc(-c3ccc(Br)cc3)oc2C)c2cc(Br)ccc2n1`, the GI50 is 2.65 µM and the TGI was above 100 µM.
Consider `COc1ccc2c(O)cc3c(c2c1)[C@H](CCl)CN3C(=O)c1cc2cc(NC(=O)CCN3CCOCC3)ccc2[se]1`, for which the GI50 was below 0.001 µM and the TGI was above 3.34 µM.
`COc1cc2c(cc1O)C1Cc3ccc(OC)c(O)c3C(C2)N1C` (centres undefined) yielded a total growth inhibition concentration (TGI) above 100 µM.

In the next test the test system is NCI-H226 lung. The test can be described thus: DTP human tumour cell line panel, 48 h.
On to `Nc1nc(SN=Nc2ccc(S(N)(=O)=O)cc2)c2[nH]cnc2n1`, for which the GI50 was 0.867 µM and the concentration for total growth inhibition (TGI) is above 100 µM.
For `CN(CCCNC(=O)Cc1ccc2ccc3cccc4ccc1c2c34)CCCNc1cc(-c2ccc3ccccc3c2)nc2ccccc12`, in that order: 1.83 µM and 3.83 µM.

The values are drawn from PubChem BioAssay (NCI).
